Here are results for seven molecules from PMC7203344, “Sirtuin 1 Inhibiting Thiocyanates (S1th)—A New Class of Isotype Selective Inhibitors of NAD^+ Dependent Lysine Deacetylases” (Frontiers in Oncology, 2020).

Where “and” joins values, the source holds several entries; their conditions need not be identical. Identical values can stand only once. Entries after “also recorded” stand apart in the source; their conditions may differ.

Assay [1] addresses T1, Sirt1 (Homo sapiens, UniProt Q96EB6).
T1 construct: made in house; host or cells: E. coli BL21 Star (DE3)
T1 sequence (Q96EB6 134-747): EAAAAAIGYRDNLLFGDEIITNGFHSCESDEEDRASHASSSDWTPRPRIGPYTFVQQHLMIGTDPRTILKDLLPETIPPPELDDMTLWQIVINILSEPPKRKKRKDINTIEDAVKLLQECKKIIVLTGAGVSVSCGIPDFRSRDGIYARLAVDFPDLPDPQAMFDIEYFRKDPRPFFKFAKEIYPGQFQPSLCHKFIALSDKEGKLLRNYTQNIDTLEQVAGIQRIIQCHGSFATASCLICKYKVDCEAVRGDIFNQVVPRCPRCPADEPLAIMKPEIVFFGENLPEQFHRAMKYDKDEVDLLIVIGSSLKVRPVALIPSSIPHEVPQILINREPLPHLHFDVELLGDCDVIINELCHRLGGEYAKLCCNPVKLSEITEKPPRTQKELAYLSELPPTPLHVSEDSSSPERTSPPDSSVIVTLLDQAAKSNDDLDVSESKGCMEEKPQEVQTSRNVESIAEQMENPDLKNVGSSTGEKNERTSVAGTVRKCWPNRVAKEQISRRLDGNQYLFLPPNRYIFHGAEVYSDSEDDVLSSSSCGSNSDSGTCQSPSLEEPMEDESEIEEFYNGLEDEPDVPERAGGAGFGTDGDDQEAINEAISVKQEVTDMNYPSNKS
Kind of assay: Fluorescent thermal shift assay (FTSA), Sirt1. Type of assay: binding. Here is the method:
In a 96-well plate (Hard-Shell® PCR-plates, 96-well, thin-wall, BioRAD, USA) 14 μL Sirt1_134−747 in assay buffer (0.3 mg/mL final assay concentration, 50 mM Tris/HCl, 137 mM NaCl, 2.7 mM KCl, 1 mM MgCL2, pH 8.0) were mixed with 1 μL inhibitor in DMSO (100 μM) or DMSO [final assay concentration 5% (v/v)] as a control and 5 μL SyproOrange (1:100 in assay buffer). The fluorescence intensity was monitored during a constant increase of temperature from 20 to 95°C, 1 K per 20 s, using a real-time-PCR-machine (C1000 TouchTM Thermal Cycler, CFX96TM Real-Time System, BioRAD, USA). Melting temperatures were calculated via GraphPad Prism according to a published procedure ([60]).

The target in assay [2] is T1, Sirt1. The assay can be described thus: Homogeneous ZMAL-based fluorescence assay, Sirt1. Type of assay: biochemical. The method, then: (§1) Recombinant human Sirt5_37−310 was purchased readily in Tris Buffer [25 mM Tris, 100 mM NaCl, 5 mM DTT, 10% glycerol (v/v)] from Enzo Life Sciences (NY, USA). Human Sirt3_118−395 was expressed and purified as described previously ([54]). For expression of human Sirt1_134−747 and Sirt2_56−356 chemically competent cells of E. coli BL21 Star (DE3) were transformed with the expression vectors pET30S-hSirt1_134−747 or pET30S-hSirt2_56−356. Bacteria were grown at 37°C in 2×YT medium supplemented with 50 μg·mL^−1 of kanamycin to an OD600 of 0.6. Then isopropyl-β-D-1-thiogalactopyranoside (IPTG) was added to a final concentration of 1 mM to induce gene expression. After further cultivation at 20°C for 12 h, the cells were harvested by centrifugation for 15 min at 5,000 g. The cells were resuspended in lysis buffer [100 mM Tris/HCl buffer at pH 8.0, 150 mM NaCl and 10% (v/v) glycerol] and disrupted by ultrasonication (Branson Digital Sonifier 250) at 70% amplitude for 10 min (3 s working, 10 s pause). The crude extract was cleared by centrifugation at 100,000 g for 1 h, and the supernatant was loaded onto a Strep-Tactin Superflow cartridge (5 ml bed volume, IBA Lifescience, Germany). Target proteins were eluted with lysis buffer containing 5 mM D-Desthiobiotin (IBA Lifescience, Germany) and further separated by size-exclusion chromatography (Superdex S200 26/60, GE Healthcare, IL, USA) equilibrated in Tris/HCl buffer (20 mM, 150 mM NaCl, pH 8.0). Pure protein was concentrated by ultrafiltration, flash-frozen in liquid nitrogen and stored at −80°C until further use. Identity as well as purity were verified by SDS-PAGE ([55]) and protein concentration was determined by the bicinchoninic acid (BCA) method, using bovine serum albumin (BSA) as a standard ([56]). Deacetylase activity was confirmed to be NAD^+-dependent and could be inhibited with the physiological sirtuin inhibitor nicotinamide.
(§2) All compounds were tested in the trypsin-coupled high-throughput ZMAL-assay in black 96-well plates (OptiPlateTM−96F, black, 96 well, Pinch bar design, PerkinElmer, USA), using ZMAL (Z-Lys(acetyl)-AMC) as a substrate ([57]). Sirt1_134−747, Sirt2_56−356, and Sirt3_118−395 were mixed with 5 μL substrate (10.5 μM final assay concentration, diluted from a […] stock in DMSO) and 3 μL Inhibitor in DMSO at various concentrations or DMSO as a control [final DMSO concentration 5% (v/v)]. The mixture was supplemented with assay buffer (50 mM Tris/HCl, 137 mM NaCl, 2.7 mM KCl, 1 mM MgCL2, pH 8.0) to a total volume of 55 μL. Enzyme concentration was adjusted to get a final conversion of 20–30%. Addition of 5 μL NAD^+ (6 mM in assay buffer, final assay concentration of 500 μM) initiated the catalytic reaction and the plates were incubated at 37°C for 4 h with agitation at 140 rpm. The catalytic reaction was stopped by addition of 60 μL stop solution [50 mM Tris, 100 mM NaCl, 6.7% (V/V) DMSO, 5.5 U/μL trypsin, 8 μM nicotinamide, pH 8.0]. The plate was again incubated at 37°C and 140 rpm for 20 min to release free AMC from the deacetylated substrate by trypsin digestion. Afterwards, fluorescence intensity was measured in a microplate reader (λEx = 390 nm, λEm = 460 nm, BMG POLARstar Optima, BMG Labtech, Germany). An enzyme-free blank control and a 100% conversion control containing AMC instead of ZMAL were measured in addition. Inhibition was calculated in % in relation to a DMSO control after blank signal subtraction and IC50 values were determined using a non-linear regression to fit the dose-response curve with OriginPro 9G (OriginLab, USA). Pre-tests as well as IC50 determination was carried out at least twice in duplicates.

For a further assay, the target named is T2, human Sirt2 (Homo sapiens, UniProt Q8IXJ6).
T2 construct: made in house; host or cells: E. coli BL21 Star (DE3)
T2 sequence (Q8IXJ6 56-356): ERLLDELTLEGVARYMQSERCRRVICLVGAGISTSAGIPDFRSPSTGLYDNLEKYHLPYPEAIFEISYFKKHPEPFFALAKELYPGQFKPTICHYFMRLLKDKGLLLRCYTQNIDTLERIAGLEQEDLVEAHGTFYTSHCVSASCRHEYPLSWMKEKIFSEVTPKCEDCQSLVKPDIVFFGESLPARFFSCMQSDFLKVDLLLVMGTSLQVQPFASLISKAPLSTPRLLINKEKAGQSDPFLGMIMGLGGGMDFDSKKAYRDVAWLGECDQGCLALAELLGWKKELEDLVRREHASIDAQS
Kind of assay: Homogeneous ZMAL-based fluorescence assay, Sirt2. Type of assay: biochemical. Here is the method: as §1, §2

In another assay the target is T3, human Sirt3 (Homo sapiens, UniProt Q9NTG7).
T3 construct: Human Sirt3_118−395 was expressed and purified as described previously; made in house
T3 sequence (Q9NTG7 118-395): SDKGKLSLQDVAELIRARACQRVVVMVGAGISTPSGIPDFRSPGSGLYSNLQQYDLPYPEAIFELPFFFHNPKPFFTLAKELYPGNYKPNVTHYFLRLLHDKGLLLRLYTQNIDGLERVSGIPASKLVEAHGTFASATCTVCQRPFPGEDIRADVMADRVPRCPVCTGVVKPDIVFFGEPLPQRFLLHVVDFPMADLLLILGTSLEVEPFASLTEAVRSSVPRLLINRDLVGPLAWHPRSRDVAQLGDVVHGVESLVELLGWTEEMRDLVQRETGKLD
Kind of assay: Homogeneous ZMAL-based fluorescence assay, Sirt3. Type of assay: biochemical. Here is the method: as §1, §2

Assay [3] relates to γH2AX/H2AX levels in MEF cells. Kind of assay: γH2AX level determination by western blot. The note with it: 48 h, EX-527 10 μM, S1th 10 30 μM, S1th 12 20 μM, S1th 13 12 μM, SirReal2 30 μM. Type of assay: cell-based, mouse. Here is the method: Sirt1 WT and KO MEFS cells were treated with 10 μM EX-527, 12 μM S1th 13 (6), 20 μM S1th 12 (5), 30 μM S1th 10 (7) and 30 μM SirReal2 [Sirt2 inhibitor, synthesized according to ([62])] for 48 h. Oxidative stress was induced using 10 μM Camptothecin 2 h. Whole-cell extracts were performed according to the Dignam protocol ([63]). Primary antibodies used for the western blot were anti-H2AX and anti-γH2AX (ab11175 and ab2893 resp., Abcam, UK). Densiometric analysis of the western blots was performed with Quantity One software (Bio-Rad Laboratories, Inc., USA).
(A western blot detects proteins with antibodies after separation by electrophoresis.)

Where [4] appears, read: 2nd round of in vitro screening.

For the molecule `NC(=O)c1ccc[n+]([C@@H]2O[C@H](COP(=O)([O-])OP(=O)(O)OC[C@H]3O[C@@H](n4cnc5c(N)ncnc54)[C@H](O)[C@@H]3O)[C@@H](O)[C@H]2O)c1` [NAD^+], on Sirt1 [1], the “effect on Tm of Sirt1 (in words)” value is reported as “slightly increased”.
On to `O=c1c2cccnc2sn1Cc1ccc(C(F)(F)F)cc1` [PU141], for which the “effect on Tm of Sirt1 (in words)” value on Sirt1 [1] is “no reasonable melting curve is obtained”.
With `CCCc1cc(=O)[nH]c(SCC(=O)Nc2cccc(SC#N)c2)n1` [S1th 1], the inhibition at 50 µM against Sirt1 [2] (50 µM, primary screen) was 82%; against human Sirt2 (setting [4]), 23%; on human Sirt3 (setting [4]), less than 10%. In addition, on Sirt1 [2] (setting [4]), half-maximal inhibition (IC50) required 13 ± 0.6 µM.
Take `N#CSc1cccc(NC(=O)c2ccc3c(c2)OCCO3)c1` [S1th 7]: at Sirt1 [2] (3rd round), the IC50 was 6.34 µM and 6.3 µM. Further, the inhibition at 50 µM against human Sirt2 (3rd round) and against human Sirt3 (3rd round) was less than 10% in each case.
With `O=C(Nc1ccccc1-c1cn2c(CN3CCNCC3)csc2n1)c1cnc2ccccc2n1` [SRT1720], the “effect on Tm of Sirt1 (in words)” value at Sirt1 [1] is “barely effected; also recorded: very small shift or no shift at all”.
In the case of `Cc1cc(C)nc(SCC(=O)Nc2ncc(Cc3cccc4ccccc34)s2)n1` [SirReal2, reference compound], the “γH2AX/H2AX levels without Camptothecin” value in assay [3] is “does not affect”.
On to adenosine diphosphate ribose [ADPR], for which, on Sirt1 [1], the “effect on Tm of Sirt1 (in words)” value is on record as “strongly increased” and the “stabilization (increase of Tm) of Sirt1” value is “up to 4 K”.

Usually inhibition stands for the drop in the measured response relative to a control, in per cent. Usually IC50 stands for the concentration that inhibits the measured activity by half. Read a low IC50 as greater potency.
